Laboratory results: patent US11147272B2, “Pyridone compounds and agricultural and horticultural fungicides comprising the same as active ingredients” (MITSUI CHEMICALS AGRO, INC., priority 2017, dated 2021)

How the values were obtained:
[1] = tested on: Magnaporthe grisea; test: whole plant or invertebrate; assay type: in vivo; conditions: for Test A control value class: class of control value
[2] = tested on: Alternaia brassicicola; test: Test Example C: Alternaria sooty spot on cabbage; assay type: in vivo; conditions: for Test C control value class: class of control value
Source text: Seeds of a test plant (cabbage variety: Shikidori) were planted and cultivated until the cotyledons extended.
<Control Value> Control value=100{1−(n/3)}

[3] = tested on: Puccinia recondita; test: Test Example E: Brown rust on wheat; assay type: in vivo; conditions: for Test E control value class: class of control value
[4] = tested on: Phytophthora infestans; test: whole plant or invertebrate; assay type: in vivo; conditions: for Test F control value class: class of control value
[5] = tested on: Botrytis cinerea; test: Test Example B: Gray mold on tomato; conditions: for Test B control value class: class of control value
[6] = tested on: Plasmopara viticola; test: Test Example G: Downy mildew on vine; conditions: for Test G control value: 7 to 10 days after inoculation; for Test G control value class: Downy mildew on vine (Neomuscat), 2.5 ml/pot, assessed 7 to 10 days after inoculation
[7] = tested on: Colletotrichum orbiculare; test: Test Example H: Anthracnose on cucumber; conditions: for Test H control value: 6 to 10 days after inoculation; for Test H control value class: Anthracnose on cucumber (Sagami Hanjiro), 2.5 ml/pot, assessed 6 to 10 days after inoculation
[8] = tested on: Blumeria graminis f. sp. hordei; test: Test Example D: Powdery mildew on barley; conditions: for Test D control value class: class of control value
[9] = 250 ppm drug solution sprayed on test plant
[10] = 250 ppm drug solution sprayed (2.5 ml/pot), grape Neomuscat
[11] = 250 ppm drug solution sprayed (2.5 ml/pot), cucumber Sagami Hanjiro
[12] = Blast on rice, control value class
[13] = Alternaria sooty spot on cabbage, control value class
[14] = Brown rust on wheat, control value class
[15] = Late blight on tomato, control value class
[16] = Gray mold on tomato, control value class
[17] = Downy mildew on vine, 250 ppm spray
[18] = Anthracnose on cucumber, 250 ppm spray
[19] = Powdery mildew on barley, control value class
[20] = Alternaria sooty spot on cabbage

Row | SMILES | Test A control value [1, 12] | Test C control value [2, 13] | Test E control value [3, 14] | Test F control value [4, 15] | Test B control value [5, 16] | Test G control value [6, 17] | Test H control value [7, 18] | Test D control value [8, 19] | Test A control value class ([1]; Blast on rice) | Test C control value class [2, 20] | Test E control value class ([3]; Brown rust on wheat) | Test F control value class ([4]; Late blight on tomato) | Test B control value class ([5]; Gray mold on tomato) | Test G control value class ([6]; 250 ppm spray) | Test H control value class ([7]; 250 ppm spray) | Test D control value class ([8]; Powdery mildew on barley) | other results
1 | CCOC(C)(CC)c1cc(Cl)c(=O)n(C)c1-c1c(F)cc(F)cc1F (centres unmarked) [compound 509] |  |  |  |  |  |  |  |  |  |  |  |  |  |  |  |  | Test A control value [1, 9]: H (more than 50% control value); Test C control value [2, 9]: L (50% or less control value); Test E control value [3, 9]: H (more than 50% control value); Test F control value [4, 9]: L (50% or less control value); Test B control value [5, 9]: L (50% or less control value); Test G control value [6, 10]: H (more than 50% control value); Test H control value [7, 11]: H (more than 50% control value); Test D control value [8, 9]: H (more than 50% control value)
2 | CCn1c(-c2ccc(OC)cc2)c(C(C)(O)C(C)C)cc(Cl)c1=O (centres unmarked) [compound 223] | L (50% or less control value) | H (more than 50% control value) | H (more than 50% control value) | L (50% or less control value) | H (more than 50% control value) | L (50% or less control value) | L (50% or less control value) | L (50% or less control value) |  |  |  |  |  |  |  |  | 
3 | CCn1c(-c2ccc(C#N)cc2)c(C=O)cc(Cl)c1=O [compound 288] | L (50% or less control value) | H (more than 50% control value) | L (50% or less control value) | L (50% or less control value) | L (50% or less control value) | L (50% or less control value) | L (50% or less control value) | L (50% or less control value) |  |  |  |  |  |  |  |  | 
4 | CCCOC(C)(c1cc(Cl)c(=O)n(CC)c1-c1ccc(C#N)cc1)C(C)C (centres unmarked) [compound 252] | H (more than 50% control value) | L (50% or less control value) | L (50% or less control value) | L (50% or less control value) | L (50% or less control value) | L (50% or less control value) | L (50% or less control value) | L (50% or less control value) |  |  |  |  |  |  |  |  | 
5 | CCn1c(-c2ccccc2F)c(CC(C)C)cc(Cl)c1=O [compound 255] | H (more than 50% control value) | H (more than 50% control value) | H (more than 50% control value) | L (50% or less control value) | H (more than 50% control value) | L (50% or less control value) | H (more than 50% control value) | H (more than 50% control value) |  |  |  |  |  |  |  |  | 
6 | CCOC(C)(C)c1cc(Cl)c(=O)n(CC)c1-c1c(F)cc(OC)cc1F [compound 162] |  |  |  |  |  |  |  |  | H (more than 50% control value) | H (more than 50% control value) | H (more than 50% control value) | L (50% or less control value) | H (more than 50% control value) | H (more than 50% control value) | H (more than 50% control value) | H (more than 50% control value) | 
7 | CCCCCCCCCc1cc(Br)c(=O)n(CC)c1-c1ccc(F)cc1Cl [compound 275] | L (50% or less control value) | L (50% or less control value) | L (50% or less control value) | L (50% or less control value) | L (50% or less control value) | L (50% or less control value) | L (50% or less control value) | H (more than 50% control value) |  |  |  |  |  |  |  |  | 
8 | CCn1c(-c2ccc(Cl)cc2Cl)c(CC(C)C)ccc1=O [compound 135] |  |  |  |  |  |  |  |  | H (more than 50% control value) | H (more than 50% control value) | H (more than 50% control value) | L (50% or less control value) | H (more than 50% control value) | H (more than 50% control value) | H (more than 50% control value) | H (more than 50% control value) | 
9 | CCn1c(-c2c(F)cccc2OC)c(CC(C)C)ccc1=O [compound 95] |  |  |  |  |  |  |  |  | L (50% or less control value) | L (50% or less control value) | H (more than 50% control value) | H (more than 50% control value) | H (more than 50% control value) | L (50% or less control value) | L (50% or less control value) | H (more than 50% control value) | 
10 | CCn1c(-c2c(F)cc(F)cc2F)c(CC(C)C)ccc1=O [compound 37] |  |  |  |  |  |  |  |  | H (more than 50% control value) | L (50% or less control value) | L (50% or less control value) | L (50% or less control value) | L (50% or less control value) | L (50% or less control value) | L (50% or less control value) | L (50% or less control value) | 
11 | CC(C)Cc1cc(Cl)c(=O)n(CC(F)F)c1-c1c(F)cc(F)cc1F [compound 304] | H (more than 50% control value) | H (more than 50% control value) | H (more than 50% control value) | L (50% or less control value) | H (more than 50% control value) | L (50% or less control value) | H (more than 50% control value) | H (more than 50% control value) |  |  |  |  |  |  |  |  | 
12 | CCC(O)c1cc(Cl)c(=O)n(CC)c1-c1c(F)cc(F)cc1F (centres unmarked) [compound 46] |  |  |  |  |  |  |  |  | H (more than 50% control value) | H (more than 50% control value) | H (more than 50% control value) | L (50% or less control value) | H (more than 50% control value) | L (50% or less control value) | H (more than 50% control value) | H (more than 50% control value) | 
13 | CCOC(c1cc(Cl)c(=O)n(C)c1-c1c(F)cc(F)cc1F)C(C)C (centres unmarked) [compound 497] |  |  |  |  |  |  |  |  |  |  |  |  |  |  |  |  | Test A control value [1, 9]: H (more than 50% control value); Test C control value [2, 9]: H (more than 50% control value); Test E control value [3, 9]: H (more than 50% control value); Test F control value [4, 9]: L (50% or less control value); Test B control value [5, 9]: H (more than 50% control value); Test G control value [6, 10]: H (more than 50% control value); Test H control value [7, 11]: H (more than 50% control value); Test D control value [8, 9]: H (more than 50% control value)
